Common to all, as to type: in vivo
Experiment [1] relates to Gompholobium tomentosum seeds. In words: Seed vigour enhancement (cumulative germination). The note with it: compound 1a at 100 ppb; FIG. 3. The method, then:
(§1) For each species, five replicates of 20 seeds were placed on Petri dishes lined with seed germination paper. The Petri dishes were moistened with de-ionised water (control) or 100 ppb compound 1a. All species were incubated in constant darkness at 12/12 hr alternating temperatures of 7/18° C., 13/26° C. or 18/33° C. Germination was scored on radicle emergence and was recorded every 2-3 days until germination had ceased.

The next experiment relates to Melaleuca carrii seeds. In words: Seed vigour enhancement (cumulative germination). The note with it: compound 1a at 100 ppb; FIG. 3. The method, then: as §1
In the next experiment the test system is Microlaena stipoides. The experiment is described as follows: Germination enhancement of species used in rangeland pasture systems. The note with it: 100 ppb compound 1a; constant darkness at 18° C.; mean ± standard error. The method, then:
Three replicates of 25 seeds were placed on Petri dishes lined with seed germination paper. The Petri dishes were moistened with de-ionised water (control) or 100 ppb compound 1a. All species were incubated in constant darkness at 18° C. Germination (radicle emergence) was recorded every 2-3 days until germination had ceased.

With `Cc1c2ccocc-2oc1=O` [Compound 1a, 3-Methyl-2H-furo[2,3-c]pyran-2-one], in experiment [1], the “germination rate (cumulative germination), Gompholobium tomentosum” value was “improved germination rate”. In addition, in the experiment on Melaleuca carrii seeds, the “germination rate (cumulative germination), Melaleuca carrii” value is given as “improved germination rate”. For the same compound, the “Germination, Microlaena stipoides” value with Microlaena stipoides was determined as 78.3 ± 6.7 b.

The record behind these values is patent publication US20070105721A1, “Vinylogous 4-Hpyrones and their use in promoting plant growth” (priority 2003, published 2007).
